Read-outs that look alike come from different tables or passages of the source.
What was measured:
[1] = tested on: S. mansoni (Puerto Rican) worm pairs; assay: Egg laying by adult worm pairs (Puerto Rican strain); type: cell-based, Schistosoma mansoni; settings: % of DMSO control
[2] = tested on: adult S. mansoni (Liberian strain) worm pairs; assay: Adult worm (Liberian strain) in vitro viability assay; type: cell-based, Schistosoma mansoni; settings: for adult worms' percentage of viability reduction, 72 h: SD in brackets; for IC50: Schistosoma mansoni, 72 h, Liberian strain
[3] = tested on: S. mansoni (Puerto Rican) worm pairs; assay: Worm pairing of adult worm pairs (Puerto Rican strain); type: cell-based, Schistosoma mansoni; settings: % of DMSO control
hSirt2 = settings: cited from earlier work
[4] = tested on: S. mansoni newly transformed schistosomula (NTS), Liberian strain; assay: NTS (Liberian strain) in vitro viability assay; type: cell-based, Schistosoma mansoni; settings: for percentage of reduction of NTS viability, 72 h: SD in brackets; for IC50: 72 h, Liberian strain
[5] = tested on: adult S. mansoni (Puerto Rican strain) worm pairs; settings: for reduction of viability of adult worm pairs: concentration not given, Puerto Rican strain; for viability of adult worm pairs after recovery: both, Puerto Rican, Schistosoma mansoni
SmSirt2 = SmSirt2 (Schistosoma mansoni, UniProt T1VXA1); assay: In vitro SmSirt2 inhibition assay, homogeneous fluorescence-based, ZMAL substrate; type: biochemical; settings: for IC50: read-out: IC50 SmSirt2, ZMAL substrate
Sequence of SmSirt2 (T1VXA1 entry or part of it): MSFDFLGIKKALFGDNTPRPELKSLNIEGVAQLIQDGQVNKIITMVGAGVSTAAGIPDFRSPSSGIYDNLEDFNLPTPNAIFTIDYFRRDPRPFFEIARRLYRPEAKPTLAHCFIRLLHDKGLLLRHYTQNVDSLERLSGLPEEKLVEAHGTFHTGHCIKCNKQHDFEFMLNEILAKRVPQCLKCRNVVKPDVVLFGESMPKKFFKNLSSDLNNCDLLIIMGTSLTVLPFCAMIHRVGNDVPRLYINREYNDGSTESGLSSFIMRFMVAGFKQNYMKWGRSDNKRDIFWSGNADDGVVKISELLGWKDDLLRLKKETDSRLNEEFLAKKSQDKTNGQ
Method: We first improved the synthetic method to obtain most of the BDFs analogues 1–12 (Figure ), and we tested them against recombinant SmSirt2 using a homogeneous, fluorescent-based in vitro assay with (Z)-(Ac)-Lys-7-amino-4-methylcoumarin (ZMAL) as the substrate.
The BDF4 compounds 1–12 were tested for their inhibitory activity against SmSirt2 using a fluorescence-based assay with ZMAL as the substrate. Their activity against hSirt2 has been previously reported. ,
For the screening of compounds 1–12, a homogeneous fluorescence-based assay previously described by some of us was used to determine SmSirt2 activity.

[6] = tested on: cytochrome c release in S. mansoni (Puerto Rican strain) worms; assay: Western blot of cytosolic cytochrome c in worm extracts; type: cell-based, Schistosoma mansoni; settings: 1 μM, 24 h (legend of Figure 5)
Method: To determine if the Sirt2 inhibitors trigger apoptosis through the cytochrome c pathway, we examined cytochrome c release from mitochondria.
5 Effects of selected Sirt2 inhibitors on cytosolic cytochrome c expression. Representative immunoblots of cytosolic protein fractions extracted from S. mansoni adult worm pairs are shown. The worms were treated with the indicated Sirt2 inhibitors (10 μM) for 48 h. DMSO (vehicle), TSA (1 μM, 24 h), a HDAC pan-inhibitor, and salermide (Sal 25 μM, 48 h), a Sirt1/Sirt2 inhibitor, were used as controls. The α-tubulin signal was used for normalization. Quantitation of cytochrome c relative to the vehicle-treated sample is shown.
Ten pairs of adult parasites were treated with selected Sirt inhibitors for either 24 or 48 h at partially lethal and sublethal concentrations. The concentrations of compounds were chosen based on the viability curve. Positive controls in the experiments included TSA, a pan-HDAC inhibitor, and salermide, a hSirt1/2 inhibitor, while DMSO (vehicle) served as negative control. Parasites were lysed in a 0.5% Triton PBS buffer by strokes, and the lysates were then centrifuged to collect the soluble fractions (cytosol). The insoluble fractions were extracted with 0.25 N HCl at +4 °C for 18 h, followed by neutralization with 1/10 volume of 2 N NaOH. Samples were analyzed using 15% SDS-PAGE and Western blotting. […]

[7] = ref footnote b (reference number not given)

Structure (SMILES)	% egg laying ([1]; 1 μM, 24 h, single experiment)	% egg laying ([1]; 1 μM, 48 h, single experiment)	% egg laying ([1]; 1 μM, 72 h, single experiment)	% egg laying ([1]; 10 μM, 24 h, SD in brackets)	% egg laying ([1]; 10 μM, 48 h, SD in brackets)	% egg laying ([1]; 10 μM, 72 h, SD in brackets)	% egg laying ([1]; 20 μM, 24 h, SD in brackets)	% egg laying ([1]; 20 μM, 48 h, SD in brackets)	adult worms' percentage of viability reduction, 72 h ([2]; 10 μM)	adult worms' percentage of viability reduction, 72 h ([2]; 20 μM)	IC50 [2]	% worm pairing ([3]; 1 μM, 24 h, single experiment)	% worm pairing ([3]; 1 μM, 48 h, single experiment)	percentage of reduction of NTS viability, 72 h ([4]; 0.1 μM)	percentage of reduction of NTS viability, 72 h ([4]; 1 μM)	percentage of reduction of NTS viability, 72 h ([4]; 10 μM)	percentage of reduction of NTS viability, 72 h ([4]; 20 μM)	IC50 ([4]; Schistosoma mansoni)	IC50 (SmSirt2)	IC50 (hSirt2; [7])	also measured
O=c1nc2oc3ccc4ccccc4c3cc-2c(=O)[nH]1 [Compound 1, 7-Oxa-8,10-Diazabenzo[a]anthracene-9,11-dione]	79%	90%	116%	93 (27) %	97 (14) %	122 (14) %	56 (22) %	75 (19) %	27.5 (2) %	85.7 (7.2) %	> 10 µM	100%	100%	16.7 (0) %	90 (1.7) %	100 (0) %	100 (0) %	~0.2 µM	3.8 ± 0.3 µM		% egg laying ([1]; 20 μM, 72 h, SD in brackets): 109 (47) %; % worm pairing ([3]; 1 μM, 72 h, single experiment): 100%; % worm pairing ([3]; 10 μM, 24 h, SD in brackets): 100 (0) %; % worm pairing ([3]; 10 μM, 48 h, SD in brackets): 100 (0) %; % worm pairing ([3]; 10 μM, 72 h, SD in brackets): 100 (0) %; % worm pairing ([3]; 20 μM, 24 h, SD in brackets): 100 (0) %; % worm pairing ([3]; 20 μM, 48 h, SD in brackets): 100 (0) %; % worm pairing ([3]; 20 μM, 72 h, SD in brackets): 100 (0) %; IC50 (hSirt2; ref footnote a (reference number not given)): > 50 µM; IC50 [4]: 0.25 µM; reduction of viability of adult worm pairs ([5]; 72 h): 20%; selectivity toward SmSIRT2 over the human isoform (SmSirt2; SmSirt2 vs hSirt2): selectively active against the parasite enzyme
Cn1c(=O)nc2oc3ccc4ccccc4c3cc-2c1=O [Compound 2, 10-Methyl-9H-benzo[5,6]chromeno[2,3-d]pyrimidine-9,11(10H)-dione]									37.3 (3.9) %	82.1 (3.6) %	> 10 µM			20.8 (0) %	43.8 (2.1) %	61.5 (3.8) %	85.7 (3.6) %	1.5 µM	2.3 ± 0.1 µM	11.2 ± 0.3 µM	
CCn1c(=O)nc2oc3ccc4ccccc4c3cc-2c1=O [Compound 3, 10-Ethyl-9H-benzo[5,6]chromeno[2,3-d]pyrimidine-9,11(10H)-dione]									49 (0) %	80.3 (5.4) %	> 10 µM				40 (0) %	100 (0) %	100 (0) %	1.03 µM	12.6 ± 2.2 µM	30 ± 1.2 µM	
C=CCn1c(=O)nc2oc3ccc4ccccc4c3cc-2c1=O [Compound 4, 10-Allyl-9H-benzo[5,6]chromeno[2,3-d]pyrimidine-9,11(10H)-dione]	72%	68%	95%	61(6) %	82 (12) %	79 (19) %	11 (6) %	7 (5) %		94.4 (0) %	2.03 µM	100%	100%	20 (0) %	100 (0) %	100 (0) %	100 (0) %	~0.1 µM		10.8 ± 0.3 µM	adult worms' percentage of viability reduction, 72 h ([2]; 1 μM): 40.7 (3.7) %; % worm pairing ([3]; 1 μM, 72 h, single experiment): 100%; % worm pairing ([3]; 10 μM, 24 h, SD in brackets): 90 (14) %; % worm pairing ([3]; 10 μM, 48 h, SD in brackets): 90 (14) %; % worm pairing ([3]; 10 μM, 72 h, SD in brackets): 90 (14) %; % worm pairing ([3]; 20 μM, 24 h, SD in brackets): 0 (0) %; % worm pairing ([3]; 20 μM, 48 h, SD in brackets): 20 (0) %; % worm pairing ([3]; 20 μM, 72 h, SD in brackets): 60 (0) %; IC50 [4]: 0.12 µM; reduction of viability of adult worm pairs ([5]; 24 h): approximately 80%; viability of adult worm pairs after recovery ([5]; 72 h): 50%; inhibition at 50 µM (SmSirt2): 53.9%
CCCn1c(=O)nc2oc3ccc4ccccc4c3cc-2c1=O [Compound 5, 10-Propyl-9H-benzo[5,6]chromeno[2,3-d]pyrimidine-9,11(10H)-dione]	104%	94%	144%	55 (15) %	73 (33) %	75 (7) %	12 (16) %	11 (14) %		91.7 (2.8) %	3.35 µM	100%	100%	24 (0) %	100 (0) %	100 (0) %	100 (0) %	~0.1 µM	8 ± 0.7 µM	12.5 ± 0.5 µM	% egg laying ([1]; 20 μM, 72 h, SD in brackets): 13 (10) %; adult worms' percentage of viability reduction, 72 h ([2]; 1 μM): 25.9 (3.7) %; % worm pairing ([3]; 1 μM, 72 h, single experiment): 100%; % worm pairing ([3]; 10 μM, 24 h, SD in brackets): 90 (14) %; % worm pairing ([3]; 10 μM, 48 h, SD in brackets): 100 (14) %; % worm pairing ([3]; 10 μM, 72 h, SD in brackets): 100 (14) %; % worm pairing ([3]; 20 μM, 24 h, SD in brackets): 0 (0) %; % worm pairing ([3]; 20 μM, 48 h, SD in brackets): 10 (14) %; % worm pairing ([3]; 20 μM, 72 h, SD in brackets): 0 (0) %; IC50 [4]: 0.12 µM; reduction of viability of adult worm pairs ([5]; 24 h): approximately 80%; viability of adult worm pairs after recovery ([5]; 72 h): 40%
CCCCn1c(=O)nc2oc3ccc4ccccc4c3cc-2c1=O [Compound 6, 10-Butyl-9H-benzo[5,6]chromeno[2,3-d]pyrimidine-9,11(10H)-dione]																	34 (1) %		7.8 ± 0.8 µM	16.9 ± 0.8 µM	
O=C1NC(=O)N(c2ccccc2)C(=O)/C1=C/c1c(O)ccc2ccccc12 [Compound 10]																					% inhibition at 50 μM hSirt2 (hSirt2; 50 μM, ref footnote a (reference number not given)): 0.7% ^a; inhibition of hSirt2 in words (hSirt2; ref not printed (previously reported)): failed to inhibit; inhibition at 50 µM (SmSirt2): 3.5%; inhibition of SmSirt2 in words (SmSirt2): failed to inhibit
CC(/C=C/C(=O)NO)=C\[C@@H](C)C(=O)c1ccc(N(C)C)cc1 [TSA]																					cytosolic cytochrome c level [6]: increased levels of cytochrome c
